From US7396837B2, “Antitumoral analogs of lamellarins” (Pharma Mar, S.A.U., priority 2002, dated 2008)

Experiments:
Format in all cases: cell-based
[1] = test system: SK-BR-3; assay: SRB colorimetric cell growth inhibition assay, SK-BR-3; conditions: Homo sapiens, SK-BR-3, SK-BR-3; for GI50: GI=growth inhibition, read-out: GI50 SK-BR-3; for CC50: cell killing (cytotoxic effect), read-out: LC50 SK-BR-3; for IC (TGI): total growth inhibition (cytostatic effect), read-out: TGI SK-BR-3
Outline: (§1)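 Continuous drug exposure of human cancer cells; SRB protein stain read-out; triplicate wells, mean ± SD; GI, TGI, LC computed.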

[2] = test system: IGROV-ET; assay: SRB colorimetric cell growth inhibition assay, IGROV-ET (ET-743 resistant); conditions: Homo sapiens, IGROV-ET; for GI50: GI=growth inhibition, read-out: GI50 IGROV-ET; for CC50: cell killing (cytotoxic effect), read-out: LC50 IGROV-ET; for IC (TGI): total growth inhibition (cytostatic effect), read-out: TGI IGROV-ET
Outline: as §1

[3] = test system: SK-MEL-28; assay: SRB colorimetric cell growth inhibition assay, SK-MEL-28; conditions: Homo sapiens, SK-MEL-28, MEL-28; for GI50: GI=growth inhibition, read-out: GI50 MEL-28; for CC50: cell killing (cytotoxic effect), read-out: LC50 MEL-28; for IC (TGI): total growth inhibition (cytostatic effect), read-out: TGI MEL-28
Outline: as §1

[4] = test system: A-549; assay: SRB colorimetric cell growth inhibition assay, A-549; conditions: Homo sapiens, A549, A-549; for GI50: GI=growth inhibition, read-out: GI50 A-549; for CC50: cell killing (cytotoxic effect), read-out: LC50 A-549; for IC (TGI): total growth inhibition (cytostatic effect), read-out: TGI A-549
Outline: as §1

[5] = test system: HeLa; assay: SRB colorimetric cell growth inhibition assay, HeLa; conditions: Homo sapiens, HeLa; for GI50: GI=growth inhibition, read-out: GI50 HELA; for CC50: cell killing (cytotoxic effect), read-out: LC50 HELA; for IC (TGI): total growth inhibition (cytostatic effect), read-out: TGI HELA
Outline: as §1

[6] = test system: HT-29; assay: SRB colorimetric cell growth inhibition assay, HT-29; conditions: Homo sapiens, HT-29, HT-29; for GI50: GI=growth inhibition, read-out: GI50 HT-29; for CC50: cell killing (cytotoxic effect), read-out: LC50 HT-29; for IC (TGI): total growth inhibition (cytostatic effect), read-out: TGI HT-29
Outline: as §1

[7] = test system: PANC-1; assay: SRB colorimetric cell growth inhibition assay, PANC-1; conditions: Homo sapiens, PANC-1, PANC-1; for GI50: GI=growth inhibition, read-out: GI50 PANC-1; for CC50: cell killing (cytotoxic effect), read-out: LC50 PANC-1; for IC (TGI): total growth inhibition (cytostatic effect), read-out: TGI PANC-1
Outline: as §1

[8] = test system: LoVo; assay: SRB colorimetric cell growth inhibition assay, LoVo; conditions: Homo sapiens, LoVo; for GI50: GI=growth inhibition, read-out: GI50 LOVO; for CC50: cell killing (cytotoxic effect), read-out: LC50 LOVO; for IC (TGI): total growth inhibition (cytostatic effect), read-out: TGI LOVO
Outline: as §1

[9] = test system: LNCaP; assay: SRB colorimetric cell growth inhibition assay, LNCaP; conditions: Homo sapiens, LNCaP, LN-caP; for GI50: GI=growth inhibition, read-out: GI50 LN-caP; for CC50: cell killing (cytotoxic effect), read-out: LC50 LN-caP; for IC (TGI): total growth inhibition (cytostatic effect), read-out: TGI LN-caP
Outline: as §1

[10] = test system: IGROV; assay: SRB colorimetric cell growth inhibition assay, IGROV; conditions: Homo sapiens, IGROV; for GI50: GI=growth inhibition, read-out: GI50 IGROV; for CC50: cell killing (cytotoxic effect), read-out: LC50 IGROV; for IC (TGI): total growth inhibition (cytostatic effect), read-out: TGI IGROV
Outline: as §1

[11] = test system: K-562; assay: SRB colorimetric cell growth inhibition assay, K-562; conditions: Homo sapiens, K562, K-562; for GI50: GI=growth inhibition, read-out: GI50 K-562; for CC50: cell killing (cytotoxic effect), read-out: LC50 K-562; for IC (TGI): total growth inhibition (cytostatic effect), read-out: TGI K-562
Outline: as §1

[12] = test system: DU-145; assay: SRB colorimetric cell growth inhibition assay, DU-145; conditions: Homo sapiens, DU-145, DU-145; for GI50: GI=growth inhibition, read-out: GI50 DU-145; for CC50: cell killing (cytotoxic effect), read-out: LC50 DU-145; for IC (TGI): total growth inhibition (cytostatic effect), read-out: TGI DU-145
Outline: as §1

[13] = test system: HeLa-APL; assay: SRB colorimetric cell growth inhibition assay, HeLa-APL (aplidine resistant); conditions: Homo sapiens, HELA-APL; for GI50: GI=growth inhibition, read-out: GI50 HELA-APL; for CC50: cell killing (cytotoxic effect), read-out: LC50 HELA-APL; for IC (TGI): total growth inhibition (cytostatic effect), read-out: TGI HELA-APL
Outline: as §1

[14] = test system: LoVo-Dox; assay: SRB colorimetric cell growth inhibition assay, LoVo-Dox (MDR); conditions: Homo sapiens, LOVO-DOX; for GI50: GI=growth inhibition, read-out: GI50 LOVO-DOX; for CC50: cell killing (cytotoxic effect), read-out: LC50 LOVO-DOX; for IC (TGI): total growth inhibition (cytostatic effect), read-out: TGI LOVO-DOX
Outline: as §1

Structure (SMILES): COc1cc(-c2c3c4cc(OC)c(OC(=O)CCCCCN)cc4oc(=O)c3n3ccc4c(OC(=O)CCCCCN)c(OC)c(OC)cc4c23)ccc1OC(=O)CCCCCN [Compound 193]
- GI50 [1]: 227 nM
- CC50 [1]: 10200 nM
- IC (TGI) [1]: 567 nM
- GI50 [2]: 136 nM
- CC50 [2]: 9590 nM
- IC (TGI) [2]: 432 nM
- GI50 [3]: 101 nM
- CC50 [3]: 10200 nM
- IC (TGI) [3]: 497 nM
- GI50 [4]: 607 nM
- CC50 [4]: 10200 nM
- IC (TGI) [4]: 10200 nM
- GI50 [5]: 350 nM
- CC50 [5]: 10200 nM
- IC (TGI) [5]: 10200 nM
- GI50 [6]: 10200 nM
- CC50 [6]: 10200 nM
- IC (TGI) [6]: 10200 nM
- GI50 [7]: 278 nM
- CC50 [7]: 10200 nM
- IC (TGI) [7]: 3600 nM
- GI50 [8]: 350 nM
- CC50 [8]: 10200 nM
- IC (TGI) [8]: 847 nM
- GI50 [9]: 118 nM
- CC50 [9]: 5490 nM
- IC (TGI) [9]: 491 nM
- GI50 [10]: 74.1 nM
- CC50 [10]: 3480 nM
- IC (TGI) [10]: 410 nM
- GI50 [11]: 123 nM
- CC50 [11]: 3910 nM
- IC (TGI) [11]: 399 nM
- GI50 [12]: 33.3 nM
- CC50 [12]: 438 nM
- IC (TGI) [12]: 128 nM
- GI50 [13]: 797 nM
- CC50 [13]: 10200 nM
- IC (TGI) [13]: 10200 nM
- GI50 [14]: 313 nM
- CC50 [14]: 10200 nM
- IC (TGI) [14]: 10200 nM

Structure (SMILES): COc1cc(-c2c3c4cc(OC)c(OC(=O)[C@@H](N)C(C)C)cc4oc(=O)c3n3ccc4cc(OC(=O)[C@@H](N)C(C)C)c(OC)cc4c23)ccc1OC(=O)[C@@H](N)C(C)C [Compound 195]
- GI50 [1]: 45.5 nM
- CC50 [1]: 840 nM
- IC (TGI) [1]: 89.8 nM
- GI50 [2]: 41.7 nM
- CC50 [2]: 2740 nM
- IC (TGI) [2]: 215 nM
- GI50 [3]: 44.1 nM
- CC50 [3]: 1940 nM
- IC (TGI) [3]: 159 nM
- GI50 [4]: 113 nM
- CC50 [4]: 11000 nM
- IC (TGI) [4]: 1150 nM
- GI50 [5]: 51.3 nM
- CC50 [5]: 633 nM
- IC (TGI) [5]: 204 nM
- GI50 [6]: 2150 nM
- CC50 [6]: 8620 nM
- IC (TGI) [6]: 4310 nM
- GI50 [7]: 56.9 nM
- CC50 [7]: 3110 nM
- IC (TGI) [7]: 363 nM
- GI50 [8]: 150 nM
- CC50 [8]: 783 nM
- IC (TGI) [8]: 342 nM
- GI50 [9]: 22.1 nM
- CC50 [9]: 365 nM
- IC (TGI) [9]: 86.4 nM
- GI50 [10]: 25 nM
- CC50 [10]: 855 nM
- IC (TGI) [10]: 145 nM
- GI50 [11]: 11.7 nM
- CC50 [11]: 170 nM
- IC (TGI) [11]: 40.9 nM
- GI50 [12]: 13.7 nM
- CC50 [12]: 58.5 nM
- IC (TGI) [12]: 28.4 nM
- GI50 [13]: 87.6 nM
- CC50 [13]: 536 nM
- IC (TGI) [13]: 234 nM
- GI50 [14]: 106 nM
- CC50 [14]: 2500 nM
- IC (TGI) [14]: 500 nM
